Several values for one entry are separate records, joined by “and”; a condition that tells them apart may be missing. Equal values may be shown once.
What was measured:
[1] = test system: primary human AML blast cells; assay: Loss of viability of primary patient AML cells, trypan-blue exclusion; type: cell-based; conditions: one table row per patient (1-6)
Description: To further test the combination of LBH589+5-aza to induce cell death in AML, the U937 AML cell lines and fresh leukemia blast cells from AML patients are incubated with the compounds either as a combination or as single agents. Cell death is either monitored by cells staining for Annexin V (signifying apoptosis) or by counting live cells by trypan-blue exclusion. […] Importantly, no antagonism is observed when the two compounds are combined. […] Trypan-blue exclusion is used to count number of viable cells and percentage of dead cells for each treatment calculated and tabulated.

AML cell line U937 = assay: Western immunoblotting of U937 cells for acetylated tubulin, p21 and PARP; type: cell-based; conditions: 2 μM 5-aza, 10 nM LBH589 or combination, 24 hours, western blot (FIG. 1)
Description: The AML cell line U937 is incubated with LBH589 or 5-aza as single agents or in combination.
U937 cells are treated with 2 μM 5-aza, 10 nM LBH589 or with a combination of 5-aza+LBH589 for 24 hours. Cells are lysed, proteins separated by SDS-PAGE and western immunoblotting analysis done with antibodies against acetylated tubulin, p21, PARP and β-actin (control for loading).

Compound	% Cell Death ([1]; Aza 1 μM, listed as Aza)	% Cell Death ([1]; Aza 2 μM, listed as Aza)	PARP cleavage as a measure of apoptotic cell death (AML cell line U937)	acetylation of alpha-tubulin (AML cell line U937)	expression of the cell growth inhibitor p21 (AML cell line U937)	% Cell Death ([1]; LBH-589 10 nM)	% Cell Death ([1]; LBH-589 50 nM)
Nc1ncn([C@@H]2O[C@H](CO)[C@@H](O)[C@H]2O)c(=O)n1 [5-aza, 5-azacytidine]	8.6% and 16.5% and 25.9% and 13.1% and 15% and 19.3%	10.1% and 19.3% and 28.5% and 15.9% and 22.6% and 40.4%	only a slight PARP cleavage	not	induces the expression		
Cc1[nH]c2ccccc2c1CCNCc1ccc(/C=C/C(=O)NO)cc1 [LBH589, N-hydroxy-3-[4-[[[2-(2-methyl-1H-indol-3-yl)-ethyl]-amino]methyl]phenyl]-2E-2-propenamide]			only a slight PARP cleavage	induces increased acetylation	induces the expression	15.4% and 22.3% and 41.9% and 19.5% and 73.7% and 35.9%	45.1% and 34.2% and 62.6% and 41.6% and 85.6% and 48.9%
